Converted amounts (≈) assume the structure as drawn. A value given as a limit tells only on which side of the number the result lay.

We go through 23 compounds from patent US6380243B1, “Aminopyridine-containing thiourea inhibitors of herpes viruses” (American Home Products Corporation, priority 1998, dated 2002).

The subject of one experiment is HCMV wild-type. The experiment is described as follows: HCMV yield assay. It is filed as cell-based, human cytomegalovirus. The following applies: human foreskin fibroblasts, reduction of virus yield by 50%; for IC50: Human betaherpesvirus 5, Fibroblast, read-out: IC50 (ug/ml) HCMV. As for the experimental part:
Yield assay. Monolayer cultures of human foreskin fibroblasts are infected with HCMV wild-type, typically at a multiplicity of infection equal to 0.2, in the presence of inhibitor compound (varying concentrations). At three days post-infection, total virus produced in these cultures (i.e. virus yield) is assessed by harvesting and titering the virus in 12-well plates of cultured human foreskin fibroblasts (done in the absence of inhibitor). Plaques are quantified at 2 weeks post-infection. An inhibitor of HCMV is identified by the reduction in titer of virus yield in the presence, compared to the titer in the absence of compound. In this assay, the relative anti-HCMV activity of an inhibitor is typically determined by calculating the IC50 or IC90 value, that is, the amount of compound required to reduce the virus yield by 50% or 90%, respectively. Table I describes IC50 data for compounds tested against HCMV.

In the next experiment the test system is VZV strain Ellen. The experiment is described as follows: VZV Antiviral (ELISA) Assay. It is filed as cell-based, varicella-zoster virus. To be noted: for IC50 / inhibition at 10 µg/mL: Human alphaherpesvirus 3, 72 h; for IC50: read-out: IC50 (ug/ml) VZV; for inhibition at 10 µg/mL: read-out: % inhibition 10 ug/ml VZV, 10 ug/ml, human foreskin fibroblast cells, three days. As to the method:
For the generation of stock VZV to be used in the assay, VZV strain Ellen (ATCC #VR-1367) is used to infect human foreskin fibroblast (HFF) cells at low multiplicity (less than 0.1) and incubated overnight at 37° C. in 5% CO2. After the overnight incubation, the mixture of uninfected and VZV-infected HFF infected cells are then harvested and added to each well of 96-well plates (3.5×10^4 cells in 100 1μl DMEM supplemented with 2% FBS) which contain test compound or the reference standard drug control (in 100 μl DMEM supplemented with 2% FBS per well). These cells are incubated for three days at 37° C. in 5% CO2, then fixed for ELISA assay. The primary antibody is murine anti-VZV glycoprotein II monoclonal antibody (Applied Biosystems, Inc. #13-145-100) and the secondary antibody is goat anti-mouse IgG linked to β-galactosidase. Thus the extent of viral replication is determined by assessing β-galactosidase activity by quantifying the generation of the 4-methyl umbelliferone fluorescent cleavage product after addition of the methyl umbelliferyl-β-D-galactoside (Sigma #M1633) substrate on a microfluorimeter (365 nm for excitation 450 nm for emission). Antiviral activity (IC50) of the test compound is determined by comparing the flourescence obtained in absence of compound to that obtained the presence of compound.

Another experiment concerns HSV-1. Description: HSV Antiviral (ELISA) Assay. It is filed as cell-based, herpes simplex virus type 1. To be noted: HSV-1, about 24 hours post-infection; for IC50: Human alphaherpesvirus 1, Vero cells, read-out: IC50 (ug/ml) HSV. As to the method:
Vero cells (ATCC #CCL-81) are plated on 96-well tissue culture plates at 3.5×10^4 cells per 100 μl tissue culture DMEM (Dulbecco's modified Eagle media) supplemented with 2% fetal bovine serum (FBS) in each well. After overnight incubation @37° C. (in 5% CO2) and 30 minutes prior to infection with HSV-1 (multiplicity of infection equal to 0.006), cells are either untreated, or treated with test compound (multiple concentrations) or reference standard drug control. After approximately 24 hours post-infection incubation @37° C. (in 5% CO2), cells are fixed for ELISA assay. The primary antibody is murine anti-HSV glycoprotein D monoclonal primary antibody and the secondary antibody is goat anti-mouse IgG linked to β-galactosidase. Thus the extent of viral replication is determined by assessing β-galactosidase activity by quantifying the generation of the 4-methyl umbelliferone fluorescent cleavage product after addition of the methyl umbelliferyl-β-D-galactoside (Sigma #M1633) substrate on a microfluorimeter (365 nm for excitation and 450 nm for emission). Antiviral activity (IC50) of the test compound is determined by comparing the flourescence obtained in absence of compound to that obtained in the presence of compound.
In general terms: An ELISA detects its analyte on a solid surface through an enzyme-linked reagent.

Where [1] appears, read: human foreskin fibroblast cells, three days.

`O=C(Nc1ccc(NC(=S)Nc2cccnc2)cc1)c1ccccc1F` [Example 428, 2-Fluoro-N-[4-(3-pyridin-3-yl-thioureido)-phenyl]-benzamide]: the IC50 in the experiment on HCMV wild-type, in the experiment with VZV strain Ellen (setting [1]) and in the experiment on HSV-1 was over 10 µg/mL each time. In the experiment with VZV strain Ellen, the inhibition at 10 µg/mL was 0%.
For the compound `O=C(Nc1ccc(NC(=S)Nc2ccccn2)cc1)c1ccccc1F` [Example 443, 2-Fluoro-N-[4-(3-pyridin-2-yl-thioureido)-phenyl]-benzamide], the IC50 in the experiment on HCMV wild-type, with VZV strain Ellen (setting [1]) and in the experiment on HSV-1 was over 10 µg/mL each time. Further, in the experiment with VZV strain Ellen, the inhibition at 10 µg/mL is 0%.
For the compound `COc1ccccc1C(=O)Nc1ccc(NC(=S)NC(C)c2ccsc2)cc1` (stereo not shown) [Example 1101, 2-Methoxy-N-{4-[3-(1-thiophen-3-yl-ethyl)-thioureido]-phenyl}-benzamide], the IC50 in the experiment with HCMV wild-type was over 10 µg/mL; in the experiment on VZV strain Ellen (setting [1]), 1 µg/mL (≈ 2.43 µM); in the experiment with HSV-1 it was over 10 µg/mL.
`O=C(Nc1ccc(NC(=S)Nc2cncc(C(F)(F)F)c2)cc1)c1csnn1` [Example 629, [1,2,3]Thiadiazole-4-carboxylic acid {4-[3-(5-trifluoromethyl-pyridin-3-yl)-thioureido]-phenyl}-amide]: the values for the IC50 in the experiment on HCMV wild-type, in the experiment on VZV strain Ellen (setting [1]) and with HSV-1 were 0.5 µg/mL (≈ 1.18 µM), over 10 µg/mL and over 10 µg/mL, respectively.
As for `O=C(Nc1ccc(NC(=S)Nc2ccccn2)cc1)c1ccco1` [Example 426, Furan-2-carboxylic acid [4-(3-pyridin-2-yl-thioureido)-phenyl]-amide], the IC50 with HCMV wild-type was 1.6 µg/mL (≈ 4.73 µM); with VZV strain Ellen (setting [1]), 1.8 µg/mL (≈ 5.32 µM); in the experiment with HSV-1, over 10 µg/mL. Moreover, the inhibition at 10 µg/mL in the experiment with VZV strain Ellen stood at 2%.
Turning to `O=C(Nc1ccc(NC(=S)NCc2cccnc2)cc1)c1ccco1` [Example 633, Furan-2-carboxylic acid [4-(3-pyridin-3-ylmethyl-thioureido)-phenyl]-amide], the values for the IC50 in the experiment with HCMV wild-type, in the experiment on VZV strain Ellen (setting [1]) and in the experiment on HSV-1 were 0.34 µg/mL (≈ 0.965 µM), over 10 µg/mL and over 10 µg/mL, respectively.
As to `O=C(Nc1ccc(NC(=S)NC2CCc3ccccc32)cc1)c1csnn1` (stereo not shown) [Example 649, [1,2,3]Thiadiazole-4-carboxylic acid [4-(3-indan-1-yl-thioureido)-phenyl]-amide], the IC50 in the experiment with HCMV wild-type was 0.02 µg/mL (≈ 0.0506 µM); in the experiment on VZV strain Ellen (setting [1]) it was 0.5 µg/mL (≈ 1.26 µM); in the experiment with HSV-1 it was over 10 µg/mL.
The like results for `O=C(Nc1ccc(NC(=S)NCc2cccnc2)cc1)c1csnn1` [Example 634, [1,2,3]Thiadiazole-4-carboxylic acid [4-(3-pyridin-3-ylmethyl-thioureido)-phenyl]-amide] were, in that order, 0.12 µg/mL (≈ 0.324 µM), over 10 µg/mL and over 10 µg/mL.
The like results for `CC(NC(=S)Nc1ccc(NC(=O)c2ccccc2F)cc1)c1ccc2ccccc2n1` (stereo not shown) [Example 1095, 2-Fluoro-N-{4-[3-(1-quinolin-2-yl-ethyl)-thioureido]-phenyl}-benzamide] were, in that order, 2.4 µg/mL (≈ 5.4 µM), 7.1 µg/mL (≈ 16 µM) and over 10 µg/mL.
On to `O=C(Nc1ccc(NC(=S)Nc2ccncn2)cc1)c1ccco1` [Example 480, Furan-2-carboxylic acid [4-(3-pyrimidin-4-yl-thioureido)-phenyl]-amide], for which the IC50 is 7 µg/mL (≈ 20.6 µM) in the experiment with HCMV wild-type, over 10 µg/mL with VZV strain Ellen (setting [1]) and over 10 µg/mL with HSV-1. Moreover, the inhibition at 10 µg/mL in the experiment on VZV strain Ellen amounted to 42%.
Regarding `CC(NC(=S)Nc1ccc(NC(=O)c2ccccc2F)cc1)c1cc2ccccc2cn1` (stereo not shown) [Example 1097, 2-Fluoro-N-{4-[3-(1-isoquinolin-3-yl-ethyl)-thioureido]-phenyl}-benzamide], the results for the IC50 with HCMV wild-type, in the experiment with VZV strain Ellen (setting [1]) and with HSV-1 were 4 µg/mL (≈ 9 µM), 5.5 µg/mL (≈ 12.4 µM) and over 10 µg/mL, respectively.
With `CC(NC(=S)Nc1ccc(NC(=O)c2ccccc2F)cc1)c1ccc2ncccc2c1` (stereo not shown) [Example 1099, 2-Fluoro-N-{4-[3-(1-quinolin-6-yl-ethyl)-thioureido]-phenyl}-benzamide], the results for the IC50 with HCMV wild-type, with VZV strain Ellen (setting [1]) and in the experiment with HSV-1 were 5.6 µg/mL (≈ 12.6 µM), over 7.5 µg/mL and over 10 µg/mL, respectively.
In the same order, the values of `CC(C)(C)n1ccnc1NC(=S)Nc1ccc(NC(=O)c2ccccc2F)cc1` [Example 593, N-{4-[3-(1-tert-Butyl-1H-imidazol-2-yl)-thioureido]-phenyl}-2-fluoro-benzamide] are over 0.5 µg/mL, over 10 µg/mL and 10 µg/mL (≈ 24.3 µM).
As for “[1,2,3]Thiadiazole-4-carboxylic acid {4-[3-(5-chloro-pyridin-3-yl)-thioureido]-phenyl}-amide [Example 520]”, in the experiment with HCMV wild-type, the “IC50 (ug/ml) HCMV” value stood at 0.32 µg/mL. In addition, the “% inhibition 10 ug/ml VZV” value in the experiment on VZV strain Ellen (10 ug/ml, human foreskin fibroblast cells, three days) is reported as 38%. Besides, in the experiment with VZV strain Ellen (setting [1]), the “IC50 (ug/ml) VZV” value is over 10 µg/mL. The “IC50 (ug/ml) HSV” value with HSV-1 (Vero cells) turned out to be 12 µg/mL.
In the case of `CC(NC(=S)Nc1ccc(NC(=O)c2ccccc2F)cc1)c1cnc2ccccc2c1` (stereo not shown) [Example 1100, 2-Fluoro-N-{4-[3-(1-quinolin-3-yl-ethyl)-thioureido]-phenyl}-benzamide], the results for the IC50 in the experiment with HCMV wild-type, with VZV strain Ellen (setting [1]) and in the experiment on HSV-1 were 4.6 µg/mL (≈ 10.3 µM), 7.3 µg/mL (≈ 16.4 µM) and over 10 µg/mL, respectively.
On to `O=C(Nc1ccc(NC(=S)NCc2ccncc2)cc1)c1csnn1` [Example 660, [1,2,3]Thiadiazole-4-carboxylic acid [4-(3-pyridin-4-ylmethyl-thioureido)-phenyl]-amide], for which the figures for the IC50 in the experiment with HCMV wild-type and with HSV-1 were over 0.5 µg/mL and 10 µg/mL (≈ 27 µM), respectively.
For the compound `O=C(Nc1ccc(NC(=S)Nc2cccnc2)cc1)c1ccco1` [Example 429, Furan-2-carboxylic acid [4-(3-pyridin-3-yl-thioureido)-phenyl]-amide], the results for the IC50 in the experiment with HCMV wild-type, in the experiment on VZV strain Ellen (setting [1]) and in the experiment on HSV-1 were 1 µg/mL (≈ 2.96 µM), over 10 µg/mL and over 10 µg/mL, respectively. In the experiment with VZV strain Ellen, the inhibition at 10 µg/mL was found to be 0%.
In the case of `O=C(Nc1ccc(NC(=S)Nc2ccc(Cl)nc2)cc1)c1csnn1` [Example 471, [1,2,3]Thiadiazole-4-carboxylic acid {4-[3-(6-chloro-pyridin-3-yl)-thioureido]-phenyl}-amide], the results for the IC50 in the experiment on HCMV wild-type, in the experiment on VZV strain Ellen (setting [1]) and with HSV-1 were 0.03 µg/mL (≈ 0.0767 µM), over 10 µg/mL and over 10 µg/mL, respectively. Besides, in the experiment with VZV strain Ellen, the inhibition at 10 µg/mL came out at 27%.
As to `O=C(Nc1ccc(NC(=S)NCc2ccncc2)cc1)c1ccco1` [Example 659, Furan-2-carboxylic acid [4-(3-pyridin-4-ylmethyl-thioureido)-phenyl]-amide], the IC50 in the experiment on HCMV wild-type was over 0.5 µg/mL; in the experiment with HSV-1, over 10 µg/mL.
Regarding `O=C(Nc1ccc(NC(=S)NCc2cccnc2)cc1)c1ccccc1F` [Example 632, 2-Fluoro-N-[4-(3-pyridin-3-ylmethyl-thioureido)-phenyl]-benzamide], the IC50 in the experiment on HCMV wild-type, in the experiment on VZV strain Ellen (setting [1]) and with HSV-1 was over 10 µg/mL throughout.
For the compound `CC(NC(=S)Nc1ccc(NC(=O)c2ccccc2F)cc1)c1cccn1C` (stereo not shown) [Example 804, 2-Fluoro-N-(4-{3-[1-(1-methyl-1H-pyrrol-2-yl)-ethyl]-thioureido}-phenyl)-benzamide], the IC50 was over 10 µg/mL in the experiment with HCMV wild-type, 5.7 µg/mL (≈ 14.4 µM) with VZV strain Ellen (setting [1]) and over 10 µg/mL in the experiment with HSV-1.
Take `CC(NC(=S)Nc1ccc(NC(=O)c2ccccc2F)cc1)c1nccs1` (stereo not shown) [Example 1093, 2-Fluoro-N-{4-[3-(1-thiazol-2-yl-ethyl)-thioureido]-phenyl}-benzamide]: the IC50 in the experiment with HCMV wild-type, in the experiment with VZV strain Ellen (setting [1]) and in the experiment with HSV-1 was over 10 µg/mL in each case.
For `O=C(Nc1ccc(NC(=S)NCc2ccncc2)cc1)c1ccccc1F` [Example 658, 2-Fluoro-N-[4-(3-pyridin-4-ylmethyl-thioureido)-phenyl]-benzamide], the figures for the IC50 in the experiment with HCMV wild-type and in the experiment with HSV-1 were over 0.5 µg/mL and 10 µg/mL (≈ 26.3 µM), respectively.
